Consider 13 compounds from patent US9260415B2, “Heteroaryl pyridone and aza-pyridone compounds with electrophilic functionality” (Genentech, Inc., priority 2013, dated 2016).

Structures are written as SMILES. pKi: −log10 of the molar value.

Sequence of BTK (Q06187 whole entry): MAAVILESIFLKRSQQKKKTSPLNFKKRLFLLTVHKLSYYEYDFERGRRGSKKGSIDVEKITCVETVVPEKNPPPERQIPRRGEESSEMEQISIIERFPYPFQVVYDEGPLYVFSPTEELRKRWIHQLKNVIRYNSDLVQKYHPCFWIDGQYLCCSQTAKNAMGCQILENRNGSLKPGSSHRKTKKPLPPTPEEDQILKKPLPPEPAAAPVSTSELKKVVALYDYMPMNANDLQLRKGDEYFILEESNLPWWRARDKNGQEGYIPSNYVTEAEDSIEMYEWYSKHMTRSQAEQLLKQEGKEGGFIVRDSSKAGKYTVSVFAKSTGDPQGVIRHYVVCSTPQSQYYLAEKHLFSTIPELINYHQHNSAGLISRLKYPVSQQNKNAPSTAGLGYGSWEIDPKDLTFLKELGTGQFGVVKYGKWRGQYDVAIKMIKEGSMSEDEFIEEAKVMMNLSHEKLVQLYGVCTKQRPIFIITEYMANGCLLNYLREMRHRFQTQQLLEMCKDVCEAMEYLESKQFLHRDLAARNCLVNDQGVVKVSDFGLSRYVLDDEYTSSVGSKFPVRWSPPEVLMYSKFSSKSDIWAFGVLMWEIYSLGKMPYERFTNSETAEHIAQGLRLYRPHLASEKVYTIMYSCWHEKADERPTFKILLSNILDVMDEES

The target of this experiment is BTK (Homo sapiens (Human), UniProt Q06187). The experiment can be described thus: BTK LC3K biochemical assay (LabChip 3000 mobility shift). The method, then:
Formula I compounds were tested by biochemical Btk, Kinase assays (Example 901).
Alternatively, an in vitro BTK biochemical assay that quantifies BTK-catalyzed tyrosine phosphorylation of a synthetic peptide, as detected using a LabChip 3000® microfluidic mobility shift instrument (PerkinElmer; Waltham, Mass.) can be conducted. The substrate peptide, ProfilerPro® FL-Peptide 22 (Product No. 760366; PerkinElmer), has an amino-terminal fluorescent 5-carboxyfluorescein group (5-FAM) and a tyrosine residue that can be phosphorylated by BTK: 5-FAM-[…]-NH2. Purified recombinant human full-length catalytically active BTK protein was obtained from Carna Biosciences (Product No. 08-080; Kobe, Japan).
BTK assay mixtures contained 50 mM 4-(2-hydroxyethyl)-1-piperazineethanesulfonic acid buffer (pH 7.5), 10 mM magnesium chloride, 0.01% Triton X-100, 1 mM dithiothreitol, 1 μM FL-Peptide 22, 45 μM ATP, 1 nM BTK, and a titration of up to 10,000 nM test article in a final concentration of 0.5% (volume to volume [v/v]) DMSO. In the titration experiments, each of the test article concentrations (10 or 12 concentrations) was tested in duplicate. Blank reactions contained ATP, peptide, and DMSO, but no BTK or test article, whereas uninhibited control reactions contained ATP, peptide, BTK, and DMSO, but no test article.
Reactions were incubated for 30 minutes at room temperature (22° C.-23° C.) in a final volume of 20 μL per well in 384-well plates. Ten microliters of BTK plus peptide mixture were added to 10 μL of a mixture of ATP and test article (or vehicle) to initiate the reactions. Reactions were stopped by adding 10 μL of 0.25 M ethylenediaminetetraacetic acid (EDTA) at pH 8.0 to each well. In each reaction, the residual FL-Peptide 22 substrate (S) and the phospho-peptide product (P) generated were separated using the LabChip 3000 instrument. Electrophoretic separation of molecules of product from molecules of substrate was achieved using downstream and upstream voltages of −500 and −2250 V, respectively, at an operating pressure of −1 psi. The 5-FAM group present on both the substrate and product peptides was excited at 488 nm; the fluorescence at 530 nm was detected and the peak heights were reported.
Data Analysis: The extent (or percent) of conversion of substrate to product was calculated from the corresponding peak heights in the electropherogram using HTS Well Analyzer software, version 5.2 (PerkinElmer) and the following equation: conversion=[(P)÷(S+P)]×100 where S and P represent the peak heights of the substrate and product, respectively. After any baseline signal from blank wells containing no BTK was subtracted from the signal of all test wells, the % conversion data were converted to fractional activity as shown in Equation 2, where vi and vo are the % conversion in the presence and absence, respectively, of test article. The % conversion observed in the uninhibited control reaction wells containing BTK and DMSO vehicle, but no test article, was defined to have fractional activity=1 (in this case with no test article present, vi=vo), whereas blank wells with no BTK were defined as having fractional activity=0. Fractional activity was plotted against test article concentration and the data were fit using Genedata Screener software (Genedata; Basel, Switzerland) to the tight-binding apparent inhibition constant (Ki^app) Morrison equation [Williams, J. W. and Morrison, J. F. (1979) The kinetics of reversible tight-binding inhibition. Methods Enzymol 63:437-67]. The following equation was used to calculate fractional activity and Ki^app:
[formula] where [E]T and [I]T are the total concentrations of active enzyme (fixed value of 0.001 μM=1 nM) and test article (e.g., inhibitor; the varied parameter), respectively.
As usually defined, the pKi is −log10 of the Ki, conventionally taken in molar units. For the compound `C=CC(=O)NCCOc1cccc(Nc2cc(-c3ccnc(N4CCn5c(cc6c5CC(C)(C)C6)C4=O)c3CO)cn(C)c2=O)n1` [Compound 101, N-{2-[(6-{[5-(2-{4,4-dimethyl-9-oxo-1,10-diazatricyclo[6.4.0.0^2,6]dodeca-2(6),7-dien-10-yl}-3-(hydroxymethyl)pyridin-4-yl)-1-methyl-2-oxo-1,2-dihydropyridin-3-yl]amino}pyridin-2-yl)oxy]ethyl}prop-2-enamide], the pKi was 9.10.

In the case of `C=CC(=O)N(C)CCOc1cccc(Nc2cc(-c3cc(F)cc(-n4ncc5c6c(sc5c4=O)CCCC6)c3CO)cn(C)c2=O)n1` [Compound 113, N-[2-[[6-[[5-[5-fluoro-2-(hydroxymethyl)-3-(4-oxo-6,7,8,9-tetrahydrobenzothiopheno[2,3-d]pyridazin-3-yl)phenyl]-1-methyl-2-oxo-3-pyridyl]amino]-2-pyridyl]oxy]ethyl]-N-methyl-prop-2-enamide], the pKi was 9.84.

For the compound `C=CC(=O)N[C@@H](C)COc1cccc(Nc2cc(-c3cc(F)cc(-n4ncc5c6c(sc5c4=O)CCCC6)c3CO)cn(C)c2=O)n1` [Compound 108, N-[(1S)-2-[[6-[[5-[5-fluoro-2-(hydroxymethyl)-3-(4-oxo-6,7,8,9-tetrahydrobenzothiopheno[2,3-d]pyridazin-3-yl)phenyl]-1-methyl-2-oxo-3-pyridyl]amino]-2-pyridyl]oxy]-1-methyl-ethyl]prop-2-enamide], the pKi was 8.59. For the compound `CC#CC(=O)NCCOc1cccc(Nc2cc(-c3cc(F)cc(-n4ncc5c6c(sc5c4=O)CCCC6)c3CO)cn(C)c2=O)n1` [Compound 106, N-[2-[[6-[[5-[5-fluoro-2-(hydroxymethyl)-3-(4-oxo-6,7,8,9-tetrahydrobenzothiopheno[2,3-d]pyridazin-3-yl)phenyl]-1-methyl-2-oxo-3-pyridyl]amino]-2-pyridyl]oxy]ethyl]but-2-ynamide], the pKi was 9.51. The figure for `C=CC(=O)N[C@@H](C)COc1cccc(Nc2cc(-c3ccnc(N4CCn5c(cc6c5CC(C)(C)C6)C4=O)c3CO)cn(C)c2=O)n1` [Compound 107, N-[(1S)-2-[[6-[[5-[2-(7,7-dimethyl-4-oxo-1,2,6,8-tetrahydrocyclopenta[3,4]pyrrolo[3,5-b]pyrazin-3-yl)-3-(hydroxymethyl)-4-pyridyl]-1-methyl-2-oxo-3-pyridyl]amino]-2-pyridyl]oxy]-1-methyl-ethyl]prop-2-enamide] is 9.21.

Consider `CCC(=O)NCCOc1cccc(Nc2cc(-c3ccnc(N4CCn5c(cc6c5CC(C)(C)C6)C4=O)c3CO)cn(C)c2=O)n1` [Compound 119, N-{2-[(6-{[5-(2-{4,4-dimethyl-9-oxo-1,10-diazatricyclo[6.4.0.0^2,6]dodeca-2(6),7-dien-10-yl}-3-(hydroxymethyl)pyridin-4-yl)-1-methyl-2-oxo-1,2-dihydropyridin-3-yl]amino}pyridin-2-yl)oxy]ethyl}propanamide], for which the pKi is 9.02. In the case of `C=CC(=O)NCCOc1cccc(Nc2cc(-c3ccnc(-n4ncc5cc(C(C)(C)C)cc(F)c5c4=O)c3CO)cn(C)c2=O)n1` [Compound 104, N-[2-[[6-[[5-[2-(6-tert-butyl-8-fluoro-1-oxo-phthalazin-2-yl)-3-(hydroxymethyl)-4-pyridyl]-1-methyl-2-oxo-3-pyridyl]amino]-2-pyridyl]oxy]ethyl]prop-2-enamide], the pKi is 9.04. Take `C=CC(=O)N(C)CCOc1cccc(Nc2cc(-c3ccnc(N4CCn5c(cc6c5CC(C)(C)C6)C4=O)c3CO)cn(C)c2=O)n1` [Compound 112, N-[2-[[6-[[5-[2-(7,7-dimethyl-4-oxo-1,2,6,8-tetrahydrocyclopenta[3,4]pyrrolo[3,5-b]pyrazin-3-yl)-3-(hydroxymethyl)-4-pyridyl]-1-methyl-2-oxo-3-pyridyl]amino]-2-pyridyl]oxy]ethyl]-N-methyl-prop-2-enamide]: the pKi was 8.76. The figure for `C=CC(=O)NCCN(C)c1cccc(Nc2cc(-c3cc(F)cc(-n4ncc5c6c(sc5c4=O)CCCC6)c3CO)cn(C)c2=O)n1` [Compound 111, N-[2-[[6-[[5-[5-fluoro-2-(hydroxymethyl)-3-(4-oxo-6,7,8,9-tetrahydrobenzothiopheno[2,3-d]pyridazin-3-yl)phenyl]-1-methyl-2-oxo-3-pyridyl]amino]-2-pyridyl]-methyl-amino]ethyl]prop-2-enamide] is 9.31. With `C=CC(=O)NCCNc1cccc(Nc2cc(-c3cc(F)cc(-n4ncc5c6c(sc5c4=O)CCCC6)c3CO)cn(C)c2=O)n1` [Compound 105, N-[2-[[6-[[5-[5-fluoro-2-(hydroxymethyl)-3-(4-oxo-6,7,8,9-tetrahydrobenzothiopheno[2,3-d]pyridazin-3-yl)phenyl]-1-methyl-2-oxo-3-pyridyl]amino]-2-pyridyl]amino]ethyl]prop-2-enamide], the pKi was 9.61. The same measure for `Cn1cc(-c2ccnc(N3CCn4c(cc5c4CC(C)(C)C5)C3=O)c2CO)cc(Nc2ccnc(N3CCC(C(=O)NCC#N)C3)n2)c1=O` (stereo not shown) [Compound 102, N-(cyanomethyl)-1-(4-{[5-(2-{4,4-dimethyl-9-oxo-1,10-diazatricyclo[6.4.0.0^2,6]dodeca-2(6),7-dien-10-yl}-3-(hydroxymethyl)pyridin-4-yl)-1-methyl-2-oxo-1,2-dihydropyridin-3-yl]amino}pyrimidin-2-yl)pyrrolidine-3-carboxamide]: 9.06. The figure for `C=C(C#N)C(=O)NCCOc1cccc(Nc2cc(-c3cc(F)cc(-n4ncc5c6c(sc5c4=O)CCCC6)c3CO)cn(C)c2=O)n1` [Compound 117, 2-cyano-N-[2-[[6-[[5-[5-fluoro-2-(hydroxymethyl)-3-(4-oxo-6,7,8,9-tetrahydrobenzothiopheno[2,3-d]pyridazin-3-yl)phenyl]-1-methyl-2-oxo-3-pyridyl]amino]-2-pyridyl]oxy]ethyl]prop-2-enamide] is 9.24; for `C=CC(=O)N[C@H]1CCCN(c2cccc(Nc3cc(-c4cc(F)cc(-n5ncc6c7c(sc6c5=O)CCCC7)c4CO)cn(C)c3=O)n2)C1` [Compound 115, N-[(3S)-1-[6-[[5-[5-fluoro-2-(hydroxymethyl)-3-(4-oxo-6,7,8,9-tetrahydrobenzothiopheno[2,3-d]pyridazin-3-yl)phenyl]-1-methyl-2-oxo-3-pyridyl]amino]-2-pyridyl]-3-piperidyl]prop-2-enamide] it is 8.67.
